The subject of this test is ventricular contractile force. The test can be described thus: Ventricular contractile force in anesthetized open-chest dogs (strain gauge on left ventricle), i.v. injection into left saphenous vein. Format: in vivo. Particulars: for ED (30% increase): Canis lupus familiaris, iv, male dogs, anesthetized, injected into left saphenous vein, read-out: Dose which induces about 30% increase in the ventricular contractile force; for t 1/2: period of time in decreasing the cardiac contractile force to 50% of its maximum value: male dogs 11 to 13 kg, sodium pentobarbital anesthesia, i.v., dose inducing about 30% increase in ventricular contractile force, ± S.E. Here is the method: Male dogs weighing about 11 to 13 kg were anesthetized with sodium pentobarbital (30 mg/kg, i.v.). Under artificial respiration, the heart was exposed by thoractomy, and a calibrated strain gauge was attached to the wall of the left ventricle for oscillographical measurement of the ventricular contractile force. The heart rate was recorded by cardiotachography, triggered by arterial pulse. A test compound was injected into the left saphenous vein at a dose which induces about 30% increase in the ventricular contractile force.
*:Period of time in decreasing the cardiac contractile force to 50% of it

Structures are written as SMILES.

Regarding `COc1ccc(CCNCC(O)c2ccc(OC(=O)c3ccccc3)cc2)cc1OC` (stereo not drawn) [α-(3,4-dimethoxyphenethylaminomethyl)-4-benzoyloxybenzylalcohol], the ED (30% increase) is 0.039 mg/kg and the “t 1/2: period of time in decreasing the cardiac contractile force to 50% of its maximum value” was determined as 24.22 ± 0.717 min.

In the case of `COc1ccc(CCNCC(O)c2ccc(OC(=O)C(C)(C)C)cc2)cc1OC` (stereo not drawn) [α-(3,4-dimethoxyphenethylaminomethyl)-4-pivaloyloxybenzylalcohol], the ED (30% increase) came out at 0.037 mg/kg and the “t 1/2: period of time in decreasing the cardiac contractile force to 50% of its maximum value” turned out to be 20.53 ± 1.18 min.

Regarding `COc1ccc(CCNCC(O)c2ccc(OC(=O)c3ccc(C)cc3)cc2)cc1OC` (stereo not drawn) [α-(3,4-dimethoxyphenethylaminomethyl)-4-p-toluoyloxybenzylalcohol], the ED (30% increase) was 0.04 mg/kg and the “t 1/2: period of time in decreasing the cardiac contractile force to 50% of its maximum value” was found to be 24.92 ± 0.417 min.
